This note sets out measurements from ChEMBL document CHEMBL3046841, “The synthesis and screening of the antimicrobial activity of some novel 3-(furan-2-yl)-1-(aryl)-3-(phenylthio) propan-1-one derivatives” (2011).

What all share (assay type): functional
Assay [1] relates to Staphylococcus aureus. As to the kind of experiment: Antimicrobial activity against Staphylococcus aureus ATCC 29213 after 24 hr by serial microdilution method. To be noted: ATCC 29213, 24 h. (In broth dilution the organism is exposed to a series of concentrations in liquid medium.)
For assay [2], the system named is Cyberlindnera jadinii. Nature of the assay: Antimicrobial activity against Cyberlindnera jadinii KUEN 1031 serial microdilution method. The conditions noted are these: Williopsis jadinii.
The subject of assay [3] is Proteus vulgaris. As to the kind of experiment: Antimicrobial activity against Proteus vulgaris KUEN 1329 at 105 ug/disk after 24 hr by disk diffusion method. To be noted: KUEN 1329, 24 h, read-out: IZ. For orientation: A growth-free zone around the sample is the usual read-out of agar diffusion tests.
Assay [4] relates to Bacillus cereus. As to the kind of experiment: Antimicrobial activity against Bacillus cereus DSM 4312 after 24 hr by serial microdilution method. The conditions noted are these: DSM 4312, 24 h.
The test system of assay [5] is Salmonella enteritidis. Nature of the assay: Antimicrobial activity against Salmonella enterica subsp. enterica serovar Enteritidis ATCC 13076 at 105 ug/disk after 24 hr by disk diffusion method. To be noted: ATCC 13076, 24 h, read-out: IZ.
For assay [6], the system named is Pseudomonas aeruginosa. As to the kind of experiment: Antimicrobial activity against Pseudomonas aeruginosa ATCC 9027 at 105 ug/disk after 24 hr by disk diffusion method. To be noted: ATCC 9027, 24 h, read-out: IZ.
Assay [7] relates to Pseudomonas aeruginosa. Nature of the assay: Antimicrobial activity against Pseudomonas aeruginosa ATCC 9027 after 24 hr by serial microdilution method. To be noted: ATCC 9027, 24 h.
Assay [8] deals with Candida albicans. Nature of the assay: Antimicrobial activity against Candida albicans ATCC 1213 at 105 ug/disk after 48 hr by disk diffusion method. To be noted: ATCC 1213, 48 h, read-out: IZ.
Assay [9] has as its system Bacillus subtilis. Nature of the assay: Antimicrobial activity against Bacillus subtilis ATCC 6633 after 24 hr by serial microdilution method. The conditions noted are these: ATCC 6633, 24 h.
In assay [10] the test system is Candida albicans. As to the kind of experiment: Antimicrobial activity against Candida albicans ATCC 1213 by serial microdilution method.
In assay [11] the test system is Escherichia coli. Nature of the assay: Antimicrobial activity against Escherichia coli 111 after 24 hr by serial microdilution method. The conditions noted are these: Escherichia coli, 111, 24 h.
Assay [12] relates to Pseudomonas aeruginosa. Nature of the assay: Antimicrobial activity against Pseudomonas aeruginosa ATCC 27859 after 24 hr by serial microdilution method. The conditions noted are these: ATCC 27859, 24 h.
In assay [13] the test system is Salmonella enteritidis. Nature of the assay: Antimicrobial activity against Salmonella enterica subsp. enterica serovar Enteritidis ATCC 13076 after 24 hr by serial microdilution method. The conditions noted are these: ATCC 13076, 24 h.
For assay [14], the system named is Streptococcus pyogenes. As to the kind of experiment: Antimicrobial activity against Streptococcus pyogenes ATCC 176 after 24 hr by serial microdilution method. To be noted: ATCC 176, 24 h.
Assay [15] concerns Cyberlindnera jadinii. As to the kind of experiment: Antimicrobial activity against Cyberlindnera jadinii KUEN 1031 at 105 ug/disc after 48 hr by disk diffusion method. To be noted: Williopsis jadinii, KUEN 1031, 48 h; read-out: IZ.
The subject of assay [16] is Proteus vulgaris. As to the kind of experiment: Antimicrobial activity against Proteus vulgaris KUEN 1329 after 24 hr by serial microdilution method. To be noted: KUEN 1329, 24 h.
The test system of assay [17] is Staphylococcus aureus. Nature of the assay: Antimicrobial activity against Staphylococcus aureus ATCC 29213 at 105 ug/disc after 24 hr by disk diffusion method. To be noted: ATCC 29213, 24 h, read-out: IZ.
The test system of assay [18] is Bacillus subtilis. Nature of the assay: Antimicrobial activity against Bacillus subtilis ATCC 6633 at 105 ug/disk after 24 hr by disk diffusion method. The conditions noted are these: ATCC 6633, 24 h, read-out: IZ.
In assay [19] the test system is Streptococcus pyogenes. Nature of the assay: Antimicrobial activity against Streptococcus pyogenes ATCC 176 at 105 ug/disc after 24 hr by disc diffusion method. To be noted: ATCC 176, 24 h, read-out: IZ.
The test system of assay [20] is Bacillus cereus. Nature of the assay: Antimicrobial activity against Bacillus cereus DSM 4312 at 105 ug/disk after 24 hr by disk diffusion method. To be noted: DSM 4312, 24 h, read-out: IZ.
Assay [21] has as its system Pseudomonas aeruginosa. Nature of the assay: Antimicrobial activity against Pseudomonas aeruginosa ATCC 27859 at 105 ug/disk after 24 hr by disk diffusion method. To be noted: ATCC 27859, 24 h, read-out: IZ.
The subject of assay [22] is Escherichia coli. As to the kind of experiment: Antimicrobial activity against Escherichia coli 111 at 105 ug/disk after 24 hr by disk diffusion method. The conditions noted are these: Escherichia coli, 111, 24 h; read-out: IZ.

In brackets after ≈: the same amount, converted by molar mass.

As to `O=C(CC(Sc1ccccc1)c1ccco1)c1ccc(Br)cc1` (configuration not stated), the MIC in [1] is over 125 µg/mL; in assay [2], 125 µg/mL (≈ 323 µM); in assay [4] it was 62.5 µg/mL (≈ 161 µM); in assay [7] it was 31.2 µg/mL (≈ 80.7 µM); in assay [9] it was 31.2 µg/mL (≈ 80.7 µM); in assay [10], 15.6 µg/mL (≈ 40.3 µM). Also, the minimal inhibitory concentration (MIC) was over 125 µg/mL in [11]; 31.2 µg/mL (≈ 80.7 µM) in assay [12]; 62.5 µg/mL (≈ 161 µM) in [13]; 7.81 µg/mL (≈ 20.2 µM) in assay [14]; 15.6 µg/mL (≈ 40.3 µM) in assay [16]. Also, the zone of inhibition at 105 µg/disc in [3] came out at 15 mm; in assay [5] it was 17 mm; in [6], 15 mm; in assay [8] it was 11 mm; in assay [15] it was 13 mm.
In the case of `O=C(CC(Sc1ccccc1)c1ccco1)c1ccccc1O` (configuration not stated), the zone of inhibition at 105 µg/disc is 16 mm in [17]; 17 mm in [18]; 17 mm in [19]; 18 mm in [3]; 15 mm in [20]; 19 mm in assay [5]. Moreover, the zone of inhibition at 105 µg/disc is 14 mm in [6], 21 mm in assay [8], 15 mm in assay [15] and 17 mm in assay [21]. Besides, the minimum inhibitory concentration (MIC) was 15.6 µg/mL (≈ 48.2 µM) in assay [1]; 7.81 µg/mL (≈ 24.1 µM) in assay [2]; 15.6 µg/mL (≈ 48.2 µM) in assay [4]; over 125 µg/mL in assay [7]; 15.6 µg/mL (≈ 48.2 µM) in assay [9]; 125 µg/mL (≈ 385 µM) in [10]. Also, the minimum inhibitory concentration (MIC) in assay [11] was determined as 15.6 µg/mL (≈ 48.2 µM); in [12] it was 125 µg/mL (≈ 385 µM); in assay [13] it was 31.2 µg/mL (≈ 96.3 µM); in [14] it was 3.9 µg/mL (≈ 12 µM); in [16], 7.81 µg/mL (≈ 24.1 µM).
With `O=C(CC(Sc1ccccc1)c1ccco1)c1ccc(O)cc1` (configuration not stated), the MIC worked out at 31.2 µg/mL (≈ 96.3 µM) in assay [1]; 62.5 µg/mL (≈ 193 µM) in assay [2]; 31.2 µg/mL (≈ 96.3 µM) in assay [4]; 62.5 µg/mL (≈ 193 µM) in [7]; 31.2 µg/mL (≈ 96.3 µM) in [9]; 15.6 µg/mL (≈ 48.2 µM) in [10]. Besides, the MIC came to 62.5 µg/mL (≈ 193 µM) in [11]; 62.5 µg/mL (≈ 193 µM) in assay [12]; 62.5 µg/mL (≈ 193 µM) in assay [13]; 7.81 µg/mL (≈ 24.1 µM) in assay [14]; 7.81 µg/mL (≈ 24.1 µM) in assay [16]. For the same compound, the zone of inhibition at 105 µg/disc stood at 17 mm in [3]; 17 mm in assay [5]; 14 mm in [6]; 20 mm in [8]; 10 mm in assay [22]; 13 mm in assay [15].
Take `CC1(C)S[C@@H]2[C@H](NC(=O)[C@H](N)c3ccccc3)C(=O)N2[C@H]1C(=O)O` [AMPICILLIN]: the MIC in assay [1] is over 125 µg/mL; in assay [2], 7.81 µg/mL (≈ 22.4 µM); in assay [4], over 125 µg/mL; in assay [7], 7.81 µg/mL (≈ 22.4 µM); in [9], over 125 µg/mL; in assay [10], over 125 µg/mL. Further, the MIC in [11] was over 125 µg/mL; in [12], over 125 µg/mL; in [13], over 125 µg/mL; in [14] it was 3.9 µg/mL (≈ 11.2 µM); in [16], 15.6 µg/mL (≈ 44.7 µM).
Consider `CO/N=C(\C(=O)N[C@@H]1C(=O)N2C(C(=O)O)=C(CSc3nc(=O)c(O)nn3C)CS[C@H]12)c1csc(N)n1` [CEFTRIAXONE], for which the minimal inhibitory concentration (MIC) in assay [1] is over 125 µg/mL; in assay [2], 15.6 µg/mL (≈ 28.2 µM); in [4] it was over 125 µg/mL; in [7], 15.6 µg/mL (≈ 28.2 µM); in assay [9], 3.9 µg/mL (≈ 7.03 µM); in assay [10], over 125 µg/mL. The MIC in assay [11] was over 125 µg/mL; in [12], over 125 µg/mL; in [13], 125 µg/mL (≈ 225 µM); in assay [14], 3.9 µg/mL (≈ 7.03 µM); in assay [16], 15.6 µg/mL (≈ 28.2 µM).
In the case of `CN(C)[C@@H]1C(O)=C(C(N)=O)C(=O)[C@@]2(O)C(O)=C3C(=O)c4c(O)cccc4[C@@](C)(O)[C@H]3C[C@@H]12` [TETRACYCLINE], the minimum inhibitory concentration (MIC) in assay [1] was determined as 125 µg/mL (≈ 281 µM); in [2] it was 15.6 µg/mL (≈ 35.1 µM); in [4], 62.5 µg/mL (≈ 141 µM); in assay [7], 3.9 µg/mL (≈ 8.78 µM); in [9], 15.6 µg/mL (≈ 35.1 µM); in [10] it was 125 µg/mL (≈ 281 µM). Further, the MIC in assay [11] is 125 µg/mL (≈ 281 µM); in [12] it was over 125 µg/mL; in assay [13] it was 7.81 µg/mL (≈ 17.6 µM); in [14], 3.9 µg/mL (≈ 8.78 µM); in assay [16], 3.9 µg/mL (≈ 8.78 µM).

As usually defined, the MIC is the least concentration at which growth counts as inhibited.
